Measurements: patent publication US20260256807A1, “SUBSTITUTED PYRAZOLES AND IMIDAZOLES AS OREXIN RECEPTOR ANTAGONISTS COMPOSITION, METHODS FOR TREATING NEUROLOGICAL AND PSYCHOLOGICAL DISORDERS” (HAGER BIOSCIENCES, LLC, priority 2022, published 2026)

target: T1, human orexin-1 receptor (Homo sapiens, UniProt O43613); assay: Intracellular calcium (FLIPR) antagonist assay, CHO cells expressing human orexin-1 receptor, 3 nM orexin-A; type: cell-based; conditions: CHO, 1 uM compound, orexin-A 3 nM, read-out: OXIR % Inh. @ 1 uM
T1 construct: expressed in transfected cells; host or cells: CHO cells (G418 selection)
T1 sequence (O43613 1-425): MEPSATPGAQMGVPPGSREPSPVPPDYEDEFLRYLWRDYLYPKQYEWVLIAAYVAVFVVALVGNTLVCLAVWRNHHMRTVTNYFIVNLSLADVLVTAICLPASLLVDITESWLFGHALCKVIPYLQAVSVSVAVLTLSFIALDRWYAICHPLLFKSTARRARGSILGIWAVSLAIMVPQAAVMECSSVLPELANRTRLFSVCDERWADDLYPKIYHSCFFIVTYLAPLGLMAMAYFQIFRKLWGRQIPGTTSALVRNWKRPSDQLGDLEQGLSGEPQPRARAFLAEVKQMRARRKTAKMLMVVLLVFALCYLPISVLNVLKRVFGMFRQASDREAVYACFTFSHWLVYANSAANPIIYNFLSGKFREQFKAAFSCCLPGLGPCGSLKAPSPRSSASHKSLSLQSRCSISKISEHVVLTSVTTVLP
Method: (§1) Antagonistic activities on both orexin receptors (i.e., to identify Orexin Receptor Antagonists) have been measured for each example compound using the in vitro assays (intracellular calcium measurements) as described herein. Other assays may also be used to identify Orexin Receptor Antagonists as would be understood by those of ordinary skill in the art. Chinese hamster ovary (CHO) cells expressing the human orexin-1 receptor and the human orexin-2 receptor, respectively, are grown in culture medium (Ham F-12 with L-Glutamine) containing 300 μg/mL G418, 100 U/mL penicillin, 100 μg/mL streptomycin and 10% heat inactivated fetal calf serum (FCS). The cells are seeded at 20′000 cells/well into 384-well black clear bottom sterile plates (Greiner). The seeded plates are incubated overnight at 37° C. in 5% CO2. Human orexin-A as an agonist is prepared as 1 mM stock solution in MeOH: water (1:1), diluted in HBSS containing 0.1% bovine serum albumin (BSA), NaHC03: 0.375 g/L and 20 mM HEPES for use in the assay at a final concentration of 3 nM.
(§2) Antagonists were prepared as 10 mM stock solution in DMSO, then diluted in 384-well plates using DMSO followed by a transfer of the dilutions into in HBSS containing 0.1% bovine serum albumin (BSA), NaHC03: 0.375 g/L and 20 mM HEPES. On the day of the assay, 50 μL of staining buffer (HBSS containing 1% FCS, 20 mM HEPES, NaHC03: 0.375 g/L, 5 mM probenecid (Sigma) and 3 μM of the fluorescent calcium indicator fluro-4 AM (1 mM stock solution in DMSO, containing 10% pluronic) is added to each well. The 384-well cell-plates are incubated for 50 min at 37° C. in 5% C02 followed by equilibration at RT for 30 min before measurement. Within the Fluorescent Imaging Plate Reader (FLIPR Tetra, Molecular Devices), potential Orexin Receptor Antagonists were added to the plate in a volume of 10 μl/well, incubated for 120 min and finally 10 μL/well of agonist is added. Fluorescence was measured for each well at 1 second intervals, and the height of each fluorescence peak compared to the height of the fluorescence peak induced by 3 nM orexin-A with vehicle in place of antagonist. The IC50 value (the concentration of compound needed to inhibit 50% of the agonistic response) was determined and normalized using the obtained IC50 value of an on-plate reference compound. Optimized conditions were achieved by adjustment of pipetting speed and cell splitting regime. The calculated IC50 values fluctuate depending on the daily cellular assay performance, as is known to those skilled in the art. In the case where IC50 values have been determined several times for the same compound, the geometric mean has been given.

Question: For `O=C(c1c(-c2ccccc2F)nn2ccccc12)N1CC2CN(c3ccc(C(F)(F)F)cn3)CC2C1` (stereo not shown) [Example 45], which inhibition at 1 µM is on record?
Answer: 78.2%

Question: `O=C(c1c(-c2ccc(F)cc2)nn2ccccc12)N1CC2CN(c3ccc(C(F)(F)F)cn3)CC2C1` (stereo not shown) [Example 46] was tested. Which inhibition at 1 µM did it give?
Answer: 53.9%

Question: Which inhibition at 1 µM does the source give for `O=C(c1c(-c2ccccc2F)nn2ccccc12)N1CC2CN(c3nc4cc(Cl)ccc4o3)CC2C1` (stereo not shown) [Example 47] here?
Answer: 97%

Question: For `O=C(c1c(-c2ccc(F)cc2)nn2ccccc12)N1CC2CN(c3nc4cc(Cl)ccc4o3)CC2C1` (stereo not shown) [Example 48], which inhibition at 1 µM is on record?
Answer: 87.1%

Question: `Cc1cc(C)nc(N2CC3CN(C(=O)c4c(-c5ccccc5F)nn5c4COCC5)CC3C2)n1` (stereo not shown) [Example 49] was tested. Which inhibition at 1 µM did it give?
Answer: -5.54%

Question: Which inhibition at 1 µM does the source give for `O=C(c1c(-c2ccccc2F)nn2c1COCC2)N1CC2CN(c3ccc(C(F)(F)F)cn3)CC2C1` (stereo not shown) [Example 50] here?
Answer: 9.55%

Question: Which inhibition at 1 µM does the source give for `O=C(c1c(-c2ccccc2F)nn2c1COCC2)N1CC2CN(c3nc4cc(Cl)ccc4o3)CC2C1` (stereo not shown) [Example 51] here?
Answer: 38.5%

Question: `C[C@@H]1CCN(c2nc3cc(Cl)ccc3o2)CCN1C(=O)c1c(-c2ccccc2F)nn2ccccc12` [Example 52] was tested. Which inhibition at 1 µM did it give?
Answer: 100%

Question: `C[C@@H]1CCN(c2ccc(C(F)(F)F)cn2)CCN1C(=O)c1c(-c2ccccc2F)nn2ccccc12` [Example 53] was tested. Which inhibition at 1 µM did it give?
Answer: 102%

Question: How did the inhibition at 1 µM turn out when `Cc1cc(C)nc(N2CC[C@@H](C)N(C(=O)c3c(-c4ccccc4F)nn4ccccc34)CC2)n1` [Example 54] was run?
Answer: 91.9%

Question: `C[C@@H]1CCN(c2ccc(C(F)(F)F)cn2)CCN1C(=O)c1nc2ccccn2c1-c1ccccc1` [Example 55] was tested. Which inhibition at 1 µM did it give?
Answer: 97%

Question: How did the inhibition at 1 µM turn out when `C[C@@H]1CCN(c2nc3cc(Cl)ccc3o2)CCN1C(=O)c1nc2ccccn2c1-c1ccccc1` [Example 56] was run?
Answer: 97%

Question: For `C[C@@H]1CCN(c2nc3cc(Cl)ccc3o2)CCN1C(=O)c1nn2c(c1-c1ccccc1)COCC2` [Example 57], which inhibition at 1 µM is on record?
Answer: 98%

Question: For `C[C@@H]1CCN(c2ccc(C(F)(F)F)cn2)CCN1C(=O)c1nn2c(c1-c1ccccc1)COCC2` [Example 58], which inhibition at 1 µM is on record?
Answer: 94%

Question: `C[C@@H]1CCN(c2nc3cc(Cl)ccc3o2)CCN1C(=O)c1nn2c(c1-c1ccccc1)OCCC2` [Example 59] was tested. Which inhibition at 1 µM did it give?
Answer: 99%

Question: `C[C@@H]1CCN(c2ccc(C(F)(F)F)cn2)CCN1C(=O)c1nn2c(c1-c1ccccc1)OCCC2` [Example 60] was tested. Which inhibition at 1 µM did it give?
Answer: 97%

Question: With `C[C@@H]1CCN(c2nc3cc(Cl)ccc3o2)CCN1C(=O)c1c(-c2ncccn2)nn2ccccc12` [Example 61] as the compound, how does the inhibition at 1 µM read?
Answer: 100%

Question: Which inhibition at 1 µM does the source give for `C[C@@H]1CCN(c2ccc(C(F)(F)F)cn2)CCN1C(=O)c1c(-c2ncccn2)nn2ccccc12` [Example 62] here?
Answer: 100%

Question: `C[C@@H]1CCN(c2nc3cc(Cl)ccc3o2)CCN1C(=O)c1c(-c2ccccn2)nn2ccccc12` [Example 63] was tested. Which inhibition at 1 µM did it give?
Answer: 100%

Question: With `C[C@@H]1CCN(c2ccc(C(F)(F)F)cn2)CCN1C(=O)c1c(-c2ccccn2)nn2ccccc12` [Example 64] as the compound, how does the inhibition at 1 µM read?
Answer: 100%

target: T2, human orexin-2 receptor (Homo sapiens, UniProt O43614); assay: Intracellular calcium (FLIPR) antagonist assay, CHO cells expressing human orexin-2 receptor, 3 nM orexin-A; type: cell-based; conditions: CHO, 1 uM compound, orexin-A 3 nM, read-out: OX2R % Inh. @ 1uM
T2 construct: expressed in transfected cells; host or cells: CHO cells (G418 selection)
T2 sequence (O43614 1-444): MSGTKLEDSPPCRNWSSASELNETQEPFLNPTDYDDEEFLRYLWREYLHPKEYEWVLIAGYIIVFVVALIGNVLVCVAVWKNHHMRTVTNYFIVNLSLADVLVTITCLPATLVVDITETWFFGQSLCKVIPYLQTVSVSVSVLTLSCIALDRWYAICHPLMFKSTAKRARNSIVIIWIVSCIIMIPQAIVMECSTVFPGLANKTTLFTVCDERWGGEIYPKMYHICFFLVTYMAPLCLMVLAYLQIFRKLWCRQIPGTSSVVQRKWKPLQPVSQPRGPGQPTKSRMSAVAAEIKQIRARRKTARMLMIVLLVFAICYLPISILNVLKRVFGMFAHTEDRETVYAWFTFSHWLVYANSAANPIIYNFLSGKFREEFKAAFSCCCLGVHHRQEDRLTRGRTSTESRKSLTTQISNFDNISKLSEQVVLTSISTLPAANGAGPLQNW
Method: as §1, §2

Question: With `O=C(c1c(-c2ccccc2F)nn2ccccc12)N1CC2CN(c3ccc(C(F)(F)F)cn3)CC2C1` (stereo not shown) [Example 45] as the compound, how does the inhibition at 1 µM read?
Answer: 27.1%

Question: For `O=C(c1c(-c2ccc(F)cc2)nn2ccccc12)N1CC2CN(c3ccc(C(F)(F)F)cn3)CC2C1` (stereo not shown) [Example 46], which inhibition at 1 µM is on record?
Answer: 14.6%

Question: `O=C(c1c(-c2ccccc2F)nn2ccccc12)N1CC2CN(c3nc4cc(Cl)ccc4o3)CC2C1` (stereo not shown) [Example 47] was tested. Which inhibition at 1 µM did it give?
Answer: 89%

Question: For `O=C(c1c(-c2ccc(F)cc2)nn2ccccc12)N1CC2CN(c3nc4cc(Cl)ccc4o3)CC2C1` (stereo not shown) [Example 48], which inhibition at 1 µM is on record?
Answer: 63.2%

Question: Which inhibition at 1 µM does the source give for `Cc1cc(C)nc(N2CC3CN(C(=O)c4c(-c5ccccc5F)nn5c4COCC5)CC3C2)n1` (stereo not shown) [Example 49] here?
Answer: 12.8%

Question: Which inhibition at 1 µM does the source give for `O=C(c1c(-c2ccccc2F)nn2c1COCC2)N1CC2CN(c3ccc(C(F)(F)F)cn3)CC2C1` (stereo not shown) [Example 50] here?
Answer: 1.62%

Question: Which inhibition at 1 µM does the source give for `O=C(c1c(-c2ccccc2F)nn2c1COCC2)N1CC2CN(c3nc4cc(Cl)ccc4o3)CC2C1` (stereo not shown) [Example 51] here?
Answer: 24.3%

Question: For `C[C@@H]1CCN(c2nc3cc(Cl)ccc3o2)CCN1C(=O)c1c(-c2ccccc2F)nn2ccccc12` [Example 52], which inhibition at 1 µM is on record?
Answer: 98.7%

Question: With `C[C@@H]1CCN(c2ccc(C(F)(F)F)cn2)CCN1C(=O)c1c(-c2ccccc2F)nn2ccccc12` [Example 53] as the compound, how does the inhibition at 1 µM read?
Answer: 98.8%

Question: Which inhibition at 1 µM does the source give for `Cc1cc(C)nc(N2CC[C@@H](C)N(C(=O)c3c(-c4ccccc4F)nn4ccccc34)CC2)n1` [Example 54] here?
Answer: 99.7%

Question: With `C[C@@H]1CCN(c2ccc(C(F)(F)F)cn2)CCN1C(=O)c1nc2ccccn2c1-c1ccccc1` [Example 55] as the compound, how does the inhibition at 1 µM read?
Answer: 37%

Question: With `C[C@@H]1CCN(c2nc3cc(Cl)ccc3o2)CCN1C(=O)c1nc2ccccn2c1-c1ccccc1` [Example 56] as the compound, how does the inhibition at 1 µM read?
Answer: 27%

Question: With `C[C@@H]1CCN(c2nc3cc(Cl)ccc3o2)CCN1C(=O)c1nn2c(c1-c1ccccc1)COCC2` [Example 57] as the compound, how does the inhibition at 1 µM read?
Answer: 28%

Question: `C[C@@H]1CCN(c2ccc(C(F)(F)F)cn2)CCN1C(=O)c1nn2c(c1-c1ccccc1)COCC2` [Example 58] was tested. Which inhibition at 1 µM did it give?
Answer: 30%

Question: With `C[C@@H]1CCN(c2nc3cc(Cl)ccc3o2)CCN1C(=O)c1nn2c(c1-c1ccccc1)OCCC2` [Example 59] as the compound, how does the inhibition at 1 µM read?
Answer: 97%

Question: Which inhibition at 1 µM does the source give for `C[C@@H]1CCN(c2ccc(C(F)(F)F)cn2)CCN1C(=O)c1nn2c(c1-c1ccccc1)OCCC2` [Example 60] here?
Answer: 81%

Question: With `C[C@@H]1CCN(c2nc3cc(Cl)ccc3o2)CCN1C(=O)c1c(-c2ncccn2)nn2ccccc12` [Example 61] as the compound, how does the inhibition at 1 µM read?
Answer: 64%

Question: Which inhibition at 1 µM does the source give for `C[C@@H]1CCN(c2ccc(C(F)(F)F)cn2)CCN1C(=O)c1c(-c2ncccn2)nn2ccccc12` [Example 62] here?
Answer: 44%

Question: Which inhibition at 1 µM does the source give for `C[C@@H]1CCN(c2nc3cc(Cl)ccc3o2)CCN1C(=O)c1c(-c2ccccn2)nn2ccccc12` [Example 63] here?
Answer: 96%

Question: How did the inhibition at 1 µM turn out when `C[C@@H]1CCN(c2ccc(C(F)(F)F)cn2)CCN1C(=O)c1c(-c2ccccn2)nn2ccccc12` [Example 64] was run?
Answer: 85%
